In US20250145596A1, “HETEROCYCLIC GLP-1 AGONISTS” (Gasherbrum Bio, Inc., priority 2022, published 2025):

target: T1, GLP-1 Receptor (Homo sapiens, UniProt P43220); assay: GLP-1R agonist cAMP stimulation assay; assay type: cell-based; conditions: HEK293/CRE-Luc cell line stably expressing the GLP-1 Receptor; 30 min at 37° C.; cAMP dynamic 2 Kit
T1 construct: host or cells: HEK293/CRE-Luc
Experimental: Activation of GLP-1 receptor is known to stimulate cyclic AMP (cAMP) production in cells which indicates primary coupling to the Gas subunit of the G protein heterotrimeric complex.
To optimize functional activity directed toward Gas coupling, a HEK293/CRE-Luc cell line developed by HDB stably expressing the GLP-1 Receptor was used. 200× concentration of compound working solutions were prepared (Agilent Technologies Bravo) with ½ log serial dilution in 384-well Echo LDV plate (Labcyte, Cat #LP-0200). 50 nL/well 200× concentration of compound working solutions were moved to 384-well white low volume plate (Greiner, Cat #784075) using Labcyte ECHO550. 1×10^5 cells/mL HEK293/GLPlR/CRE-LUC (HD Biosciences) cell suspensions prepared with assay buffer [DPBS containing 0.5 mM IBMX (Sigma, Cat #15879) and 0.1% BSA (GENVIEW, Cat #FA016-100g)], 10 μL cell suspensions were added to each well of previous generated assay plate which already contains 50 nL compound at 200× concentration using ThermoFisher Multidrop Combi (1000 cells/well). Seal the plate and incubate at 37° C. with 5% CO2 for 30 min.
After incubation the cAMP assay signal was generated using cAMP dynamic 2 Kit (Cisbio). 5 μL cAMP-d2 working solution was added to each well, followed with 5 μL Anti-cAMP antibody-cryptate working solution added to each well using ThermoFisher Multidrop Combi. Incubate at room temperature for 1 hour protected from light. Read the fluorescence at 665 and 615 nm with Reader PerkinElmer EnVision.
% Activity=100%×(mean RLU of test sample mean RLU of vehicle control)/(mean RLU of MAX control−mean RLU of vehicle control))

T1 sequence (P43220 24-463): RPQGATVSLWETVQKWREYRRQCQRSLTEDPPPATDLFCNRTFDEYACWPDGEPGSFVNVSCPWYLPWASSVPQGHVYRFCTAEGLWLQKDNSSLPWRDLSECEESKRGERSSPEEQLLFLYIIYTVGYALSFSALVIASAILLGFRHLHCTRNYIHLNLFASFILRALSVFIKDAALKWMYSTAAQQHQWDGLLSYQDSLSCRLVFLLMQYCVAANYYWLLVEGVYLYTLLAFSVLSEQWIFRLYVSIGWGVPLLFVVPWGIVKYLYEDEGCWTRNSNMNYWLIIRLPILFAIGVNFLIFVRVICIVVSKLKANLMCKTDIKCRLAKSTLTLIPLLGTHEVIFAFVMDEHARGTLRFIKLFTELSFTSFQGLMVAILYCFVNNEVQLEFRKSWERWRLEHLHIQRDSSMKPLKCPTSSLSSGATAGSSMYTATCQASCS

`Cc1ccc(C2(C)Oc3cccc(C4CCN(Cc5ncc(-c6nnc(C(F)(F)F)[nH]6)cc5CC5(C#N)CC5)CC4)c3O2)cn1` (stereo not shown) [Example 11, 1-{[2-({4-[2-Methyl-2-(6-methylpyridin-3-yl)-2H-1,3-benzodioxol-4-yl]piperidin-1-yl}methyl)-5-[5-(trifluoromethyl)-4H-1,2,4-triazol-3-yl]pyridin-3-yl]methyl}cyclopropane-1-carbonitrile] and `CC1(c2ccc(C(F)(F)F)cc2F)Oc2cccc(C3CCN(Cc4ncc(-c5nnc(C(F)(F)F)[nH]5)cc4CC4(C#N)CC4)CC3)c2O1` (stereo not shown) [Example 8, 1-((2-((4-(2-(2-fluoro-4-(trifluoromethyl)phenyl)-2-methylbenzo[d][1,3]dioxol-4-yl)piperidin-1-yl)methyl)-5-(5-(trifluoromethyl)-4H-1,2,4-triazol-3-yl)pyridin-3-yl)methyl)cyclopropane-1-carbonitrile] cannot be ordered by EC50: < 1 nM for the first, < 1 nM for the second.

`CC1(c2ccc(Cl)cc2F)Oc2cc(F)cc(C3CCN(Cc4ncc(-c5nnc(C(F)(F)F)[nH]5)cc4CC4(C#N)CC4)CC3)c2O1` (single isomer, unassigned) [Example 14, 1-{[2-({4-[2-(4-chloro-2-fluorophenyl)-6-fluoro-2-methyl-2H-1,3-benzodioxol-4-yl]piperidin-1-yl}methyl)-5-[5-(trifluoromethyl)-4H-1,2,4-triazol-3-yl]pyridin-3-yl]methyl}cyclopropane-1-carbonitrile] and `CC1(c2ccc(Cl)cc2F)Oc2c(F)ccc(C3CCN(Cc4ncc(-c5nnc(C(F)(F)F)[nH]5)cc4CC4(C#N)CC4)CC3)c2O1` (stereo not shown) [Example 12, 1-{[2-({4-[2-(4-chloro-2-fluorophenyl)-7-fluoro-2-methyl-2H-1,3-benzodioxol-4-yl]piperidin-1-yl}methyl)-5-[5-(trifluoromethyl)-4H-1,2,4-triazol-3-yl]pyridin-3-yl]methyl}cyclopropane-1-carbonitrile] cannot be ordered by EC50: < 1 nM for the first, < 1 nM for the second.

`C[C@]1(c2ccc(Cl)cc2F)Oc2cccc(C3CCN(Cc4ncc(-c5noc(=O)[nH]5)cc4CC4(C#N)CC4)CC3)c2O1` [Example 73] and `C[C@]1(c2ccc(Cl)cc2F)Oc2cccc(C3CCN(Cc4ncc(-c5nnc(C#N)[nH]5)cc4CC4(C#N)CC4)CC3)c2O1` [Example 18, (S)-5-(6-((4-(2-(4-chloro-2-fluorophenyl)-2-methylbenzo[d][1,3]dioxol-4-yl)piperidin-1-yl)methyl)-5-((1-cyanocyclopropyl)methyl)pyridin-3-yl)-4H-1,2,4-triazole-3-carbonitrile] cannot be ordered by EC50: < 1 nM for the first, < 1 nM for the second.

First: CC1(c2ccccc2F)Oc2ccc(F)c(C3CCN(Cc4ncc(-c5nnc(C(F)(F)F)[nH]5)cc4CC4(C#N)CC4)CC3)c2O1 (stereo not shown) [Example 80]
Second: CC1(c2ccc(Cl)cc2F)Oc2cccc(C3CCN(Cc4ncc(-c5nnc(C(F)(F)F)[nH]5)cc4CC4(C#N)CC4)CC3(F)F)c2O1 (stereo not shown) [Example 22, 1-{[2-({4-[2-(4-chloro-2-fluorophenyl)-2-methyl-2H-1,3-benzodioxol-4-yl]-3,3-difluoropiperidin-1-yl}methyl)-5-[5-(trifluoromethyl)-4H-1,2,4-triazol-3-yl]pyridin-3-yl]methyl}cyclopropane-1-carbonitrile]
The EC50 of the first is higher: 1 to 100 nM for the first, < 1 nM for the second.

First: C[C@]1(c2ccc(Cl)cc2F)Oc2cccc(C3CCN(Cc4ncc(-c5nnc(C(F)F)[nH]5)cc4CC4(C#N)CC4)CC3)c2O1 [Example 17, 1-{[2-({4-[(2S)-2-(4-chloro-2-fluorophenyl)-2-methyl-2H-1,3-benzodioxol-4-yl]piperidin-1-yl}methyl)-5-[5-(difluoromethyl)-4H-1,2,4-triazol-3-yl]pyridin-3-yl]methyl}cyclopropane-1-carbonitrile]
Second: C[C@]1(c2ccc(Cl)cc2F)Oc2cccc(C3CCN(Cc4ncc(C(=O)O)cc4CC4(C#N)CC4)CC3)c2O1 [Example 19, (S)-6-((4-(2-(4-chloro-2-fluorophenyl)-2-methylbenzo[d][1,3]dioxol-4-yl)piperidin-1-yl)methyl)-5-((1-cyanocyclopropyl)methyl)nicotinic acid]
The EC50 of the first is lower: < 1 nM for the first, 1 to 100 nM for the second.

First: N#CC1(Cc2cc(-c3nnc(C(F)(F)F)[nH]3)cnc2CN2CCN(c3ccc(Cl)c(OCc4ccc(Cl)cc4F)c3)CC2)CC1 [Example 42, 1-({2-[(4-{4-chloro-3-[(4-chloro-2-fluorophenyl)methoxy]phenyl}piperazin-1-yl)methyl]-5-[5-(trifluoromethyl)-4H-1,2,4-triazol-3-yl]pyridin-3-yl}methyl)cyclopropane-1-carbonitrile]
Second: N#CC1(Cc2cc(-c3nnc(C(F)(F)F)[nH]3)cnc2CN2CCN(c3ccc(F)c(OCc4ccc(Cl)cc4F)c3)CC2)CC1 [Example 41, 1-({2-[(4-{3-[(4-chloro-2-fluorophenyl)methoxy]-4-fluorophenyl}piperazin-1-yl)methyl]-5-[5-(trifluoromethyl)-4H-1,2,4-triazol-3-yl]pyridin-3-yl}methyl)cyclopropane-1-carbonitrile]
The EC50 of the first is higher: 1 to 100 nM for the first, < 1 nM for the second.

`CS(=O)(=O)Cc1cc(-c2nnc(C(F)(F)F)[nH]2)cnc1CN1CCC(c2cccc(OCc3ccc(Cl)cc3F)n2)CC1` [Example 57, 2-[(4-{6-[(4-chloro-2-fluorophenyl)methoxy]pyridin-2-yl}piperidin-1-yl)methyl]-3-(methanesulfonylmethyl)-5-[5-(trifluoromethyl)-4H-1,2,4-triazol-3-yl]pyridine] and `Cc1cc(-c2nnc(C(F)(F)F)[nH]2)cnc1CN1CCC(c2cccc(OCc3ccc(Cl)cc3F)n2)CC1` [Example 90] fall in the same range of EC50: 1 to 100 nM for the first, 1 to 100 nM for the second.

First: C[C@]1(c2ccc(Cl)cc2F)Oc2cccc(C3CCN(Cc4ncc(-c5nnc(C(F)(F)F)[nH]5)cc4CC4(C#N)CC4)CC3F)c2O1 (single isomer, unassigned) [Example 28]
Second: CC1(c2ccc(Cl)cc2F)Oc2cccc(C3CCN(Cc4ncc(-c5nnc(C(F)(F)F)[nH]5)cc4CC4(C#N)CC4)CC3O)c2O1 (single isomer, unassigned) [Example 23, 1-[(2-{[(3,4-trans)-4-[2-(4-chloro-2-fluorophenyl)-2-methyl-2H-1,3-benzodioxol-4-yl]-3-hydroxypiperidin-1-yl]methyl}-5-[5-(trifluoromethyl)-4H-1,2,4-triazol-3-yl]pyridin-3-yl)methyl]cyclopropane-1-carbonitrile]
The EC50 of the first is lower: < 1 nM for the first, 1 to 100 nM for the second. The first is the more potent here.

First: N#CC1(Cc2cc(-c3nnc(C(F)(F)F)[nH]3)cnc2CN2CCN(c3ncc(F)c(OCc4ccc(Cl)cc4F)n3)CC2)CC1 [Example 45, 1-((2-((4-(4-((4-chloro-2-fluorobenzyl)oxy)-5-fluoropyrimidin-2-yl)piperazin-1-yl)methyl)-5-(5-(trifluoromethyl)-4H-1,2,4-triazol-3-yl)pyridin-3-yl)methyl)cyclopropane-1-carbonitrile]
Second: C[C@]1(c2ccc(Cl)cn2)Oc2cccc(C3CCN(Cc4ncc(-c5nnc(C(F)(F)F)[nH]5)cc4CC4(C#N)CC4)CC3F)c2O1 (single isomer, unassigned) [Example 25]
The EC50 of the first is higher: 1 to 100 nM for the first, < 1 nM for the second. The second is the more potent here.

First: Cc1cc(-c2noc(=O)[nH]2)cnc1CN1CCC(c2cccc(OCc3ccc(Cl)cc3F)n2)CC1 [Example 95]
Second: C[C@]1(c2ccc(Cl)cc2F)Oc2cccc(C3CCN(Cc4ncc(-c5noc(=O)[nH]5)cc4CS(C)(=O)=O)CC3)c2O1 [Example 58, 3-[6-({4-[(2S)-2-(4-chloro-2-fluorophenyl)-2-methyl-2H-1,3-benzodioxol-4-yl]piperidin-1-yl}methyl)-5-(methanesulfonylmethyl)pyridin-3-yl]-2,5-dihydro-1,2,4-oxadiazol-5-one]
The EC50 of the first is higher: > 100 nM for the first, < 1 nM for the second. The second is the more potent here.

`Cc1cc(-c2cn(C)nn2)cnc1CN1CCC(c2cccc3c2OC(C)(c2ccc(Cl)cc2F)O3)CC1` (stereo not shown) [Example 94] and `Cc1cc(-c2nnc(C(F)(F)F)[nH]2)nnc1CN1CCC(c2cccc3c2O[C@@](C)(c2ccc(Cl)cc2F)O3)CC1` [Example 49, (S)-3-((4-(2-(4-chloro-2-fluorophenyl)-2-methylbenzo[d][1,3]dioxol-4-yl)piperidin-1-yl)methyl)-4-methyl-6-(5-(trifluoromethyl)-4H-1,2,4-triazol-3-yl)pyridazine] fall in the same range of EC50: 1 to 100 nM for the first, 1 to 100 nM for the second.

Compared with `C[C@]1(c2ccc(Cl)cc2F)Oc2cccc(C3CCN(Cc4ncc(-c5nnc(C(F)(F)F)[nH]5)nc4CC4(C#N)CC4)CC3)c2O1` [Example 62, 1-{[3-({4-[(2S)-2-(4-chloro-2-fluorophenyl)-2-methyl-2H-1,3-benzodioxol-4-yl]piperidin-1-yl}methyl)-6-[5-(trifluoromethyl)-4H-1,2,4-triazol-3-yl]pyrazin-2-yl]methyl}cyclopropane-1-carbonitrile], `COCC1(Cc2cc(-c3nnc(C(F)(F)F)[nH]3)cnc2CN2CCC(c3cccc4c3OC(C)(c3ccc(Cl)cn3)O4)CC2)CC1` (stereo not shown) [Example 85] is higher in EC50: < 1 nM for the first, 1 to 100 nM for the second. The first is the more potent here.

`C[C@]1(c2ccc(Cl)cc2F)Oc2cccc(C3CCN(Cc4ncc(CCC(=O)O)cc4CC4(C#N)CC4)CC3)c2O1` [Example 21, (S)-3-(6-((4-(2-(4-chloro-2-fluorophenyl)-2-methylbenzo[d][1,3]dioxol-4-yl)piperidin-1-yl)methyl)-5-((1-cyanocyclopropyl)methyl)pyridin-3-yl)propanoic acid] gave an EC50 of 1 to 100 nM.
